In patent US4101676A, “Diphenylpropylamines to treat depression” (Beecham Group Limited, priority 1973, dated 1978):
Structures can show the parent of a compound that is named as a salt.

Experiments:
reserpine hypothermia [1] = assay: Prevention of Reserpine Hypothermia; type: in vivo, mice (Carworth Europe male); settings: mice, oral; for Δ^6: cumulative temperature difference from controls at 6 hours; for Δ^24: cumulative temperature difference from controls at 24 hours
Method: The method of Spencer [Antidepressant Drugs, 194 (1967) ] was used. Groups of ten mice are given oral doses of test compound 24 18 and 2 hours before an intravenous injection of reserpine base (Serpasil). Oral temperatures of the mice are taken immediately before administration of reserpine and then 2 4 6 and 24 hours afterwards.
Mean temperatures of groups given test compounds are compared with reserpinised controls using a Students t test. Compounds causing a significant difference at the level P < 0.001 are considered active. In order to quantify anti-reserpine activity cumulative temperature differences from controls at 6 hours and 24 hours (Δ^6 and Δ^24 ) are calculated.
(§1) Carworth Europe male mice are used for all experiments apart from that using the cat nictitating membrane and test compounds are administered orally as solutions in distilled water. Compounds for intravenous administration are dissolved in 0.9% saline apart from Reserpine which is dissolved in dilute acetic acid buffered to pH5. Unless otherwise stated, the dosing interval is one hour.
(§2) The Reserpine Prevention, Reserpine Reversal and Noradrenaline Uptake Inhibition tests were carried out as described in the previous Example. The Mydriasis tests was also as described in the previous Example but using 20 mg/kg doses of each compound after which a curve was plotted of percentage increase in pupil diameter vertus time and the percentage increase was integrated with respect to time for 0-120 minutes after dosing and the result expressed as a percentage.

reserpine hypothermia [2] = assay: Reversal of Reserpine Hypothermia; type: in vivo, mice (Carworth Europe male); settings: mice, subcutaneous; for Δ^6: 6 hours; for Δ^24: 24 hours
Method: Seventeen hours later the oral temperatures of the mice are taken and various doses of test compound or vehicle given subcutaneously. Temperatures are taken 1, 2, 4 6 and 24 hours later and the results are analysed as in Test 1 (The subcutaneous route is used for convenience as the very depressed reserpinised mice cannot be reliably dosed orally).
as §1, §2

Noradrenaline uptake = assay: Inhibition of Noradrenaline Uptake in vitro (brain synaptosomes); type: biochemical, male Wistar rats
Method: (§3) Synaptosomes are isolated from the brains of male Wistar rats (150-170g.) and monamine uptake determined by the method of Snyder and Coyle (1968) [Synder S. H. and Coyle J. T. J. Pharmac. exp. Ther. 165 (1968) 78-86]. Uptake was determined over a ten minute period instead of the normal five minutes.
as §2

[3] = tested on: 5-Hydroxytryptamine uptake; assay: Inhibition of 5-Hydroxytryptamine Uptake in vitro (brain synaptosomes); type: biochemical, male Wistar rats
Method: as §3

[4] = tested on: pupil diameter (mydriasis, anticholinergic side effect); assay: Mydriatic Response in Mice (dose causing 200% increase in pupil size); type: in vivo; settings: mice, intraperitoneal, at peak time
Method: Groups of five mice are pre-selected for uniformity of pupil diameter using a binocular microscope with a calibrated eye-piece. Pupil sizes are measured at various intervals after an intraperitoneal injection of test compound and at the peak time a curve plotted of percentage increase in pupil diameter versus log dose. […] Carworth Europe male mice are used for all experiments apart from that using the cat nictitating membrane and test compounds are administered orally as solutions in distilled water. […] Unless otherwise stated, the dosing interval is one hour.

[5] = target: T1, Guinea Pig Ileum (Cavia porcellus); assay: pA2 Determination on Guinea Pig Ileum (antagonism to Acetylcholine); settings: in vitro, read-out: pA2 on Iillium (converted)
T1 construct: from tissue; host or cells: guinea pig ileum
Source text: It is thus a means of expressing anticholinergic activity which is independent of the dose of Acetylcholine and the piece of tissue used. The method used is similar to that of Schild, [Brit. J. Pharmacol. 14 (1959) 48] the tissue being bathed in Tyrode solution and a dose response curved for Acetylcholine being obtained.

T1 sequence (H0W1Z3 1-590): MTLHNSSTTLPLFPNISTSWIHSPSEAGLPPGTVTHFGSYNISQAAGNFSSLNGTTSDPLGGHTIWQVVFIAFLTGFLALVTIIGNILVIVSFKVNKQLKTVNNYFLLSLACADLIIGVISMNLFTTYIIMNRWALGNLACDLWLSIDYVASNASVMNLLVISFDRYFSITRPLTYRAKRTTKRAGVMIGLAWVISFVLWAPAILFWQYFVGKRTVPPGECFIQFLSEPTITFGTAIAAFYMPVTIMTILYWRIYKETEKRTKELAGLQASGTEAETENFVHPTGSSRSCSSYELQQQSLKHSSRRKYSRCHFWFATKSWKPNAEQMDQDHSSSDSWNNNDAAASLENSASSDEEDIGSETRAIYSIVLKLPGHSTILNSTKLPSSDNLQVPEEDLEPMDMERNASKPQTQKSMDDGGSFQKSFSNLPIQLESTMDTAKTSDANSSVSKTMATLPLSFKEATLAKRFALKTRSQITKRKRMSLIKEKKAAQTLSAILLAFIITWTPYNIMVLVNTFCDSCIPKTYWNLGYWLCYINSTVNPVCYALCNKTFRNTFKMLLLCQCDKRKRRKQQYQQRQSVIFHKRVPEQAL

Structure (SMILES) | Δ^6 (reserpine hypothermia [1]; 20 mg/kg) [°C] | Δ^24 (reserpine hypothermia [1]; 20 mg/kg) [°C] | Mydriasis-Dose to cause 200% effect [4] [mg/kg] | Kb [5] [µM] | Δ^6 (reserpine hypothermia [1]; 100 mg/kg) [°C] | Δ^24 (reserpine hypothermia [1]; 100 mg/kg) [°C] | also measured
CN(C)CC(O)C(c1ccccc1)c1ccc(F)cc1 (stereo not shown) [CH3 CH3 H H F, 3-Dimethylamino-1-p-fluorophenyl-1-phenyl-propan-2-ol] | 11 | 15 |  |  |  |  | Δ^6 (reserpine hypothermia [2]; 25 mg/kg): 17 °C; Δ^24 (reserpine hypothermia [2]; 25 mg/kg): 23 °C; Inhibition of Monoamine Uptake NA (%) (Noradrenaline uptake; 10^-5 molar): 80%; Inhibition of Monoamine Uptake NA (%) (Noradrenaline uptake; 10^-6 molar (Table 4)): 59%; Inhibition of Monoamine Uptake 5HT (%) ([3]; 10^-5 molar): 85%; Inhibition of Monoamine Uptake 5HT (%) ([3]; 10^-6 molar): 60%
CN(C)CC(O)C(c1ccccc1)c1ccccc1 (stereo not shown) [CH3 CH3 H H H HBr, 3-Dimethylamino-1,1-diphenyl-propan-2-ol] | 13 | 19 | 41 | 10 |  |  | Δ^6 (reserpine hypothermia [2]; 20 mg/kg): 14 °C; Δ^24 (reserpine hypothermia [2]; 20 mg/kg): 22 °C
CNCC(O)C(c1ccccc1)c1ccc(C)cc1 (stereo not shown) [CH3 H H H CH3 HCl, 3-N-methylamino-1-phenyl-1-p-tolyl-propan-2-ol] |  |  |  |  | 6 | 6 | 
CNCC(O)C(c1ccccc1)c1ccccc1 (stereo not shown) [CH3 H H H H HCl, 3-Methylamino-1,1-diphenyl-propan-2-ol] | > 10 | > 10 | 114 | 10 |  |  | Inhibition of Monoamine Uptake NA (%) (Noradrenaline uptake; 10^-5 molar): 85%; Inhibition of Monoamine Uptake NA (%) (Noradrenaline uptake; 10^-6 molar (Table 4)): 65%
CN(Cc1ccccc1)CC(C)(O)C(c1ccccc1)c1ccccc1 (stereo not shown) [CH3 H N(CH3)CH2C6H5, 3-(N-Benzyl N-methylamino)-2-methyl-1,1-diphenyl-propan-2-ol] |  |  |  |  | 6 | 8 | 
CNCC(C)(O)C(c1ccccc1)c1ccccc1 (stereo not shown) [CH3 H NHCH3, 3-(N-methylamino)-2-methyl-1,1-diphenyl-propan-2-ol] |  |  |  |  |  |  | Δ^6 (reserpine hypothermia [1]; 30 mg/kg): 7 °C; Δ^24 (reserpine hypothermia [1]; 30 mg/kg): 13 °C
CNCC(O)C(c1ccccc1)c1ccc(F)cc1 (stereo not shown) [H CH3 H H F, 3-Methylamino-1-p-fluorophenyl-1-phenyl-propan-2-ol] |  |  | 92 | 100 |  |  | Δ^6 (reserpine hypothermia [1]; 30 mg/kg): 12 °C; Δ^24 (reserpine hypothermia [1]; 30 mg/kg): 21 °C
CC(=O)OC(CN(C)C)C(c1ccccc1)c1ccccc1 (stereo not shown) [H COCH3 N(CH3)2, 2-Acetoxy-3-dimethylamino-1,1-diphenyl-propane] | > 10 | > 10 |  |  |  |  | 
OC(CN1CCOCC1)C(c1ccccc1)c1ccccc1 (stereo not shown) [H H morpholino] |  |  |  |  | 10 | 10 | 
OC(CN1CCCCC1)C(c1ccccc1)c1ccccc1 (stereo not shown) [H H piperidine, 3-N-Piperidino-1 1-diphenyl-propan-2-ol] |  |  |  |  | 9 | 10 | 
CN(C)CCCN1c2ccccc2CCc2ccccc21 [Imipramine HCl, reference compound] |  |  | 18 | 0.001 |  |  | Δ^6 (reserpine hypothermia [1]; 30 mg/kg): 10 °C; Δ^24 (reserpine hypothermia [1]; 30 mg/kg): 17 °C; Δ^6 (reserpine hypothermia [2]; 10 mg/kg): 18 °C; Δ^24 (reserpine hypothermia [2]; 10 mg/kg): 18 °C; Inhibition of Monoamine Uptake NA (%) (Noradrenaline uptake; 10^-5 molar): 85%; Inhibition of Monoamine Uptake NA (%) (Noradrenaline uptake; 10^-6 molar (Table 4)): 56%; Inhibition of Monoamine Uptake 5HT (%) ([3]; 10^-5 molar): 90%; Inhibition of Monoamine Uptake 5HT (%) ([3]; 10^-6 molar): 55%
